Results as given in US20090324742A1, “Peham dendrimers as excipients” (priority 2006, published 2009).
Values after ≈ are worked out from the molar mass of the structure shown.

Columns and labels:
[1] = Solubility enhancement of vitamin D3 by PEHAM dendritic polymers (HPLC); format: physicochemical; conditions: pure Active Material control without dendrimer; detection limit
Experimental: An excess of the cosmetic and nutrient Active Material, vitamin D3, (Sigma) was added to vials containing PEHAM dendritic polymers G=1.0 and G=2.0 with PETGE or TMPTGE cores and amine surfaces, partially PEGylated (25% PEG-550) amine surfaces, or carboxylate surfaces, dissolved in 20% (v/v) aqueous methanol at 1 wt % concentrations. These suspensions were briefly ultrasonicated in a water bath at RT, then incubated overnight at 32° C. and 100 rpm in a shaking water bath, and allowed to equilibrate at RT. The suspensions were filtered through a 0.2-μm Nylon syringe filter to remove not encapsulated Active Material. Solvent was removed and the residue redispersed in DI water. The samples were analyzed for dendrimer-associated vitamin D3 by HPLC. Association results are expressed in ng Active Material per mL solution. […] The pure Active Material as control remains below detection limit of 50 ng/mL.

[2] = Aqueous solubility of paclitaxel with PEHAM dendritic polymer (HPLC); format: physicochemical; conditions: DI water without dendrimer, thermodynamic from solid
Experimental: The sample was subjected to brief ultrasonication and heating at 50° C. for 10 mins., followed by overnight shaking at RT. The sample was then centrifuged for 5 mins. and the paclitaxel content measured by HPLC.

Row | SMILES | vitamin D3 solubility [1] | solubility [2]
1 | C=C1CC[C@H](O)C/C1=C/C=C1\CCC[C@]2(C)[C@@H]([C@H](C)CCCC(C)C)CC[C@@H]12 [vitamin D3] | < 0.05 µg/mL | 
2 | CC(=O)O[C@H]1C(=O)[C@@]2(C)[C@H]([C@H](OC(=O)c3ccccc3)[C@]3(O)C[C@H](OC(=O)[C@H](O)[C@@H](NC(=O)c4ccccc4)c4ccccc4)C(C)=C1C3(C)C)[C@]1(OC(C)=O)CO[C@@H]1C[C@@H]2O [paclitaxel] |  | 0.3 µg/mL (≈ 0.351 µM)
